In patent US11708318B2, “Polymorphic forms of RAD1901-2HCL” (Radius Pharmaceuticals, Inc., priority 2017, dated 2023):
“Also recorded” adds a separate entry of the source.

Experiments:
Type in all cases: physicochemical
[1] = Solubility assessment of amorphous RAD1901-2HCl; settings: thermodynamic from solid, read-out: Solubility assessment 10 vol.
Description: In a scale-up preparation of amorphous RAD1901-2HCl, RAD1901-2HCl (600 mg) was dissolved in water (20 vol., 12 mL) and filtered to remove any remaining solid particles. The solution was then aliquoted into 24 HPLC vials, frozen in a dry ice/acetone bath and the solvent removed by lyophilisation. Solids produced by lyophilization were used directly in solubility assessment and polymorph screens in Example 4.
Amorphous RAD1901-2HCl prepared as described in Example 3B was used directly in solubility assessment and polymorph screens (Table 15). XRPD patterns were further obtained for amorphous RAD1901-2HCl prepared using other solvents.

[2] = Solubility assessment of amorphous RAD1901-2HCl in water/organic solvent system; settings: organic solvent or mixture, thermodynamic from solid
Description: Samples of amorphous RAD1901-2HCl were prepared in water/organic solvent mixtures containing varying ratios of water. The organic solvents chosen were anhydrous ethanol, methanol and ethyl acetate. The percentage of water in the water/organic solvent mixtures was varied between 0 and 10% (v/v) in order to place a limit on the level of water that can be present during production processes, and to retain formation of Form 1. Above this water activity limit, the hydrated Form 3 will be obtained, as shown by GVS experiments (see FIGS. 6G and 20A). It should be noted that samples prepared in ethyl acetate, were either slurried in anhydrous ethyl acetate, or in water saturated ethyl acetate.
The water activity values for each water/organic solvent mixture are provided in Table 16, and were calculated using the reference given in Bell, Halling, Enzyme Microbiol. Technol. 1997, 20, 471, incorporated herein by reference.

[3] = Storage at elevated temperature/humidity, analysed by XRPD
Description: Samples 1 and 2 were characterized by XRPD at various conditions. XRPD patterns were collected for the samples at ambient condition as the samples were provided; at variable temperature (VT-XRPD); at variable humidity (VH-XRPD); after the samples were exposed to 40° C./75% RH for 1 week and 25° C./97% RH for 1 week, respectively; and after a GVS measurement wherein the samples were exposed to 0-90% RH. Samples 1 and 2 were also characterized by ^1H NMR, TGA, DSC, KF, IC, GVS (exposed to 0-90% RH), PLM, SEM, and HPLC (Table 5).

[4] = Gravimetric Vapour Sorption (GVS), with XRPD of the recovered sample; settings: for Hygroscopicity (GVS): 0-90% RH
Description: Sorption isotherms were obtained using a SMS DVS Intrinsic moisture sorption analyzer, controlled by DVS Intrinsic Control software v1.0.1.2 (or v 1.0.1.3). The sample temperature was maintained at 25° C. by the instrument controls. The humidity was controlled by mixing streams of dry and wet nitrogen, with a total flow rate of 200 ml/min. The relative humidity was measured by a calibrated Rotronic probe (dynamic range of 1.0-100% RH), located near the sample. The weight change, (mass relaxation) of the sample as a function of % RH was constantly monitored by the microbalance (accuracy ±0.005 mg).
A sample (e.g., 20 mg) was placed in a tared mesh stainless steel basket under ambient conditions. The sample was loaded and unloaded at 40% RH and 25° C. (typical room conditions). A moisture sorption isotherm was performed as outlined below (2 scans giving 1 complete cycle). Standard isotherms were performed at 25° C. at 10% RH intervals over a 0-90% RH range. Data analysis was carried out using Microsoft Excel using DVS Analysis Suite v6.2 (or 6.1 or 6.0).
In a cycle of 2 scans, the first scan was performed with adsorption of 40-90% RH, followed by a second scan with desorption of 90-0% RH and adsorption of 0-40% RH, with intervals of 10% RH, at 25° C. with stability dm/dt of 0.002% ° C./min. The sorption time was 6 hr time out.
The sample was recovered after completion of the isotherm and re-analyzed by XRPD. Custom moisture sorption methods were also performed at 25° C. at fixed % RH intervals over a 0-95% RH range, with the purpose to fully understand the sorption/desorption behavior of the compound under elevated conditions.
To further explore the humidity behavior of Sample 1 (Form 1) upon exposure to high RH (>90%), custom GVS experiments were designed and carried out. Initially, the sample was treated by holding at 90 and then 95% RH for ˜12 hours to see if hydrate formation could be observed (HighRH method of Steps 1 and 2 of Table 2, FIGS. 6C-6D).
To test the stability of the hydrated state, GVS method HighRH_Desorp_3 was designed with a desorption step and subsequent adsorption (see Table 2 with steps 1-4, FIGS. 6E-6F).
Finally, to ensure complete conversion to the anhydrous and hydrated forms, a GVS experiment was designed to increase both the length of the desorption step at 0% RH, and the adsorption step at 95% RH, respectively (Table 3). Based on the weight stabilization observed in the kinetic plots for Sample 1 in HighRH and HighRH_Desorp_3 methods discussed above (FIGS. 6D and 6F), a holding time of 800 mins at 0% RH and 1600 mins at 95% RH were chosen. A double cycle was also recorded for this experiment to observe whether the sample would return to Form 1 or form a mixed anhydrous/hydrated species (see Table 3, FIGS. 6G-6H).

## CCNCCc1ccc(CN(CC)c2cc(OC)ccc2[C@@H]2CCc3cc(O)ccc3C2)cc1.Cl.Cl [amorphous RAD1901-2HCl]
[1]; organic solvent or mixture, 1,2-dimethoxyethane, sample ID B16
  solubility: < 100 mg/mL
[1]; organic solvent or mixture, 1,4-Dioxane, sample ID B14
  solubility: < 100 mg/mL
[1]; organic solvent or mixture, 1-propanol, sample ID B8
  solubility: < 100 mg/mL
[1]; organic solvent or mixture, 2-propanol, sample ID B6
  solubility: < 100 mg/mL
[1]; organic solvent or mixture, 10% water/EtOH, sample ID B22
  solubility: > 100 mg/mL
[1]; organic solvent or mixture, 10% water/IPA, sample ID B23
  solubility: < 100 mg/mL
[1]; organic solvent or mixture, 10% water/THF, sample ID B24
  solubility: < 100 mg/mL
[1]; organic solvent or mixture, Acetone, sample ID B9
  solubility: < 100 mg/mL
[1]; organic solvent or mixture, Acetonitrile, sample ID B20
  solubility: < 100 mg/mL
[1]; organic solvent or mixture, Dichloromethane, sample ID B18
  solubility: < 100 mg/mL
[1]; organic solvent or mixture, Dimethyl sulfoxide, sample ID B11
  solubility: > 100 mg/mL
[1]; organic solvent or mixture, Ethanol, sample ID B10
  solubility: < 100 mg/mL
[1]; organic solvent or mixture, Ethyl acetate, sample ID B3
  solubility: < 100 mg/mL
[1]; organic solvent or mixture, Isopropyl acetate, sample ID B4
  solubility: < 100 mg/mL
[1]; organic solvent or mixture, MEK, sample ID B7
  solubility: < 100 mg/mL
[1]; organic solvent or mixture, MIBK, sample ID B5
  solubility: < 100 mg/mL
[1]; organic solvent or mixture, Methanol, sample ID B19
  solubility: < 100 mg/mL
[1]; organic solvent or mixture, Nitromethane, sample ID B21
  solubility: < 100 mg/mL
[1]; organic solvent or mixture, Propyl acetate, sample ID B2
  solubility: < 100 mg/mL
[1]; organic solvent or mixture, TBME, sample ID B13
  solubility: < 100 mg/mL
[1]; organic solvent or mixture, Tetrahydrofuran, sample ID B17
  solubility: < 100 mg/mL
[1]; organic solvent or mixture, Toluene, sample ID B15
  solubility: < 100 mg/mL
[1]; organic solvent or mixture, n-Heptane, sample ID B1
  solubility: < 100 mg/mL
[1]; Water, sample ID B12
  solubility: > 100 mg/mL
[2]; EtOH/H2O (90:10), EtOH/H2O (90:10), sample ID C1, read-out: Solubility assessment 10 vol.
  solubility: > 100 mg/mL
[2]; EtOH/H2O (95:5), EtOH/H2O (95:5), sample ID C2, read-out: Solubility assessment 10 vol.
  solubility: < 100 mg/mL
[2]; EtOH/H2O (98:2), EtOH/H2O (98:2), sample ID C3, read-out: Solubility assessment 10 vol.
  solubility: < 100 mg/mL
[2]; EtOH/H2O (99:1), EtOH/H2O (99:1), sample ID C4, read-out: Solubility assessment 10 vol.
  solubility: < 100 mg/mL
[2]; MeOH/H2O (90:10), MeOH/H2O (90:10), sample ID C5, read-out: Solubility assessment 10 vol.
  solubility: > 100 mg/mL
[2]; MeOH/H2O (95:5), MeOH/H2O (95:5), sample ID C6, read-out: Solubility assessment 10 vol.
  solubility: > 100 mg/mL
[2]; MeOH/H2O (98:2), MeOH/H2O (98:2), sample ID C7, read-out: Solubility assessment 10 vol.
  solubility: < 100 mg/mL
[2]; MeOH/H2O (99:1), MeOH/H2O (99:1), sample ID C8, read-out: Solubility assessment 10 vol.
  solubility: < 100 mg/mL
[2]; anhydrous ethyl acetate, Ethyl acetate (anhydrous), sample ID C9, read-out: Solubility assessment 10 vol.
  solubility: < 100 mg/mL
[2]; anhydrous ethyl acetate, Ethyl acetate (anhydrous), sample ID C9, read-out: Solubility assessment 20 vol
  solubility: < 50 mg/mL
[2]; anhydrous ethyl acetate, Ethyl acetate (anhydrous), sample ID C9, read-out: Solubility assessment 30 vol
  solubility: < 33.3 mg/mL
[2]; water-saturated ethyl acetate, Water-saturated ethyl acetate, sample ID C10, read-out: Solubility assessment 10 vol.
  solubility: < 100 mg/mL
[2]; water-saturated ethyl acetate, Water-saturated ethyl acetate, sample ID C10, read-out: Solubility assessment 20 vol
  solubility: < 50 mg/mL
[2]; water-saturated ethyl acetate, Water-saturated ethyl acetate, sample ID C10, read-out: Solubility assessment 30 vol
  solubility: < 33.3 mg/mL

## CCNCCc1ccc(CN(CC)c2cc(OC)ccc2[C@@H]2CCc3cc(O)ccc3C2)cc1.Cl.Cl [Form 1]
[3]; 25° C./97% RH, 1 week
  XRPD after storage at 25° C./97% RH for 1 week: converted to Form 3; also recorded: conversion towards a hydrated state Form 3
[3]; 40° C./75% RH, 1 week
  XRPD after storage at 40° C./75% RH for 1 week: stable
[3]; high RH (>90%), e.g. for 7 days
  Solid form on prolonged exposure to high RH (>90%): converted to the hydrate Form 3
[3]; relative to heat and/or humidity
  Stability of the polymorphic form (overall characterization): stable
[4]
  Hygroscopicity (GVS): relatively non-hygroscopic; also recorded: low hygroscopicity
[4]; above 90% RH
  Solid form on exposure to high RH (>90%) by GVS: irreversibly converted to the hydrate Form 3; also recorded: started converting to the hydrate Form 3
[4]; after exposure to 0-90% RH
  XRPD post GVS (uptake 0-90% RH): stable; also recorded: No changes
[4]; than Form 2
  Hygroscopicity compared with Form 2: lower hygroscopicity

## CCNCCc1ccc(CN(CC)c2cc(OC)ccc2[C@@H]2CCc3cc(O)ccc3C2)cc1.Cl.Cl [Form 3]
[3]; <40% RH, 8 hr
  Solid form after exposure to <40% RH for 8 hr: Form 2

## CCNCCc1ccc(CN(CC)c2cc(OC)ccc2[C@@H]2CCc3cc(O)ccc3C2)cc1.Cl.Cl [Form 2]
[3]; >40% RH, 7 days
  Solid form after exposure to >40% RH for 7 days: Form 3
[4]
  Hygroscopicity (GVS): hygroscopic
